From publication PMC3857288, “Characterization of Amylolysin, a Novel Lantibiotic from Bacillus amyloliquefaciens GA1” (PLoS ONE, 2013)
Read-outs that look alike come from different tables or passages of the source.

Columns and labels:
[1] = tested on: L. monocytogenes (three clinical or food isolates); test: MIC, microdilution (CLSI), summary for three isolates; assay type: cell-based, Listeria monocytogenes; details: summary value of the text for the three L. monocytogenes isolates tested; BH medium, 37 °C, 24 h, triplicate
Description: (§1) Minimal inhibitory concentration (MIC) was determined for an array of bacterial and yeast strains by a microdilution method following the Clinical and Laboratory Standard Institute (CLSI) recommended procedure. Briefly, the different indicator strains were aerobically grown in 24-wells culture plates in the presence of purified amylolysin at concentration ranging from 0.1 to 2.8 µM in the appropriate medium and temperature conditions as stipulated in table 1. Each well was seeded at an OD600 of 0.1. After 24 h of incubation, cell growth was estimated based on OD600 measurements. The MIC values were defined as the lowest amylolysin concentration that is able to inhibit cell growth. Each experiment was performed in triplicate.

[2] = assay type: physicochemical; details: agar diffusion, M. luteus ATCC 9341
Description: To evaluate sensitivity to proteases, purified amylolysin samples were quantified by RP-HPLC after 24h of incubation at 37°C with proteinase K and pronase (10 µg/ml, Sigma-Aldrich). Heat stability was evaluated after incubation for 60 min at various temperatures (25, 55, 65, 75 and 100 °C) whereas pH sensitivity was evaluated after a 1h-incubation in 200 mM HCl/KCl buffer (pH 2-3), acetate buffer (pH 4-6) and Tris buffer (pH 7-9). After those treatments, the remaining amylolysin activity was determined using the agar diffusion assays as described elsewhere, using Micrococcus luteus ATCC 9341 as an indicator strain.

[3] = Direct interaction with [14C] lipid II, TLC migration; assay type: binding; details: [14C] lipid II 2.5 µM, amylolysin 0.2 µM, DMSO/1-octanol 60/40 v/v, 1 hour, room temperature, Molecular Imager FX
Description: (§2) Radiolabelled UDP-MurNac-pentapeptide, thereafter [^14C] lipid II, was prepared in vitro using E. coli K12 purified membrane from UDP-GlcNac and UDP-MurNAc-L-Ala-D-Glu-meso-DAP-D-[^14C]Ala-D-[^14C]Ala and subsequently purified as previously described. Inhibition of glycosyl transferase reaction was performed as described elsewhere with some modifications. Briefly, [^14C] lipid II (2.5µM; 0.125µCi nmol^-1), amylolysin (0.2 µM), His-tag PBP1bγ from E. coli (15 nM) were incubated in 25mM Tris-HCl (pH7,5), 0,5 % decyl PEG, 10 mM MgCl2, 12% 1-octanol, 25 % DMSO for 1 hour at 30 °C. The reaction products were separated by thin layer chromatography (TLC) on silica plate (SilG, […], Macherey-Nagel, Duren, Germany) using a mixture of methanol/chloroform/ammoniac/water (88/48/10/1, v/v/v/v) as mobile phase. For interaction experiment, [^14C] lipid II (2.5 µM; 0.125µCinmol^-1) and amylolysin (0.2 µM) were incubated in DMSO/1-octanol mixture (60/40 v/v) for 1 hour at room temperature before being subjected to TCL using a butanol/acetic acid/pyridine/water mixture (15/3/12/10, v/v/v/v) as mobile phase. The radioactive compounds were detected and analyzed with a Molecular Imager FX system (Biorad Laboratories).

[4] = tested on: His-tag PBP1bγ from E. coli; test: Inhibition of the transglycosylation (glycosyl transferase) reaction, TLC of [14C] lipid II; assay type: biochemical; details: [14C] lipid II 2.5 µM, amylolysin 0.2 µM, PBP1bγ 15 nM, 25 mM Tris-HCl pH 7.5, 0.5 % decyl PEG, 10 mM MgCl2, 12% 1-octanol, 25 % DMSO, 1 hour, 30 °C
Description: as §2

meat proteases = details: cited from earlier work
Source text: (§3) The majority of the bacteriocins described to date are from lactic bacteria with nisin, used commercially in many countries as preservative in food products, being the best characterized compound. […] In regards to their high level of protease production, Bacillus sp. has been considered as interesting alternative source for antimicrobial peptides with increased protease tolerance. In our laboratory, B. amyloliquefaciens ...

Listeria ivanovii RFB160 = test: MIC, microdilution (CLSI); assay type: cell-based; details: BH medium, 37 °C, 24-well plates, seeded at OD600 0.1, 24 h, amylolysin 0.1-2.8 µM, OD600 read-out, triplicate
Description: as §1

[5] = tested on: Staphylococcus aureus RFB127; test: MIC, microdilution (CLSI); assay type: cell-based; details: lab stock; BH medium, 37 °C, 24-well plates, seeded at OD600 0.1, 24 h, amylolysin 0.1-2.8 µM, OD600 read-out, triplicate
Description: as §1

Listeria innocua RFB159 = test: MIC, microdilution (CLSI); assay type: cell-based; details: clinical isolate; BH medium, 37 °C, 24-well plates, seeded at OD600 0.1, 24 h, amylolysin 0.1-2.8 µM, OD600 read-out, triplicate
Description: as §1

[6] = tested on: Bacillus megaterium RFB124; test: MIC, microdilution (CLSI); assay type: cell-based; details: LB medium, 37 °C, 24-well plates, seeded at OD600 0.1, 24 h, amylolysin 0.1-2.8 µM, OD600 read-out, triplicate
Description: as §1

[7] = tested on: Listeria monocytogenes LMG 21263; test: MIC, microdilution (CLSI); assay type: cell-based; details: BH medium, 37 °C, 24-well plates, seeded at OD600 0.1, 24 h, amylolysin 0.1-2.8 µM, OD600 read-out, triplicate
Description: as §1

[8] = tested on: Staphylococcus epidermis ATCC 1228; test: MIC, microdilution (CLSI); assay type: cell-based; details: BH medium, 37 °C, 24-well plates, seeded at OD600 0.1, 24 h, amylolysin 0.1-2.8 µM, OD600 read-out, triplicate
Description: as §1

[9] = tested on: Listeria innocua ATCC33090; test: MIC, microdilution (CLSI); assay type: cell-based; details: BH medium, 37 °C, 24-well plates, seeded at OD600 0.1, 24 h, amylolysin 0.1-2.8 µM, OD600 read-out, triplicate
Description: as §1

[10] = tested on: Staphylococcus aureus ATCC 43300 (methicillin resistant); test: MIC, microdilution (CLSI); assay type: cell-based; details: methicillin resistant strain; BH medium, 37 °C, 24-well plates, seeded at OD600 0.1, 24 h, amylolysin 0.1-2.8 µM, OD600 read-out, triplicate
Description: as §1

[11] = tested on: Listeria monocytogenes LMG 23905; test: MIC, microdilution (CLSI); assay type: cell-based; details: BH medium, 37 °C, 24-well plates, seeded at OD600 0.1, 24 h, amylolysin 0.1-2.8 µM, OD600 read-out, triplicate
Description: as §1

[12] = tested on: Listeria monocytogenes LM2234; test: MIC, microdilution (CLSI); assay type: cell-based; details: clinical isolate; BH medium, 37 °C, 24-well plates, seeded at OD600 0.1, 24 h, amylolysin 0.1-2.8 µM, OD600 read-out, triplicate
Description: as §1

[13] = tested on: Streptococcus agalactiae RFB141; test: MIC, microdilution (CLSI); assay type: cell-based; details: clinical isolate; BH medium, 37 °C, 24-well plates, seeded at OD600 0.1, 24 h, amylolysin 0.1-2.8 µM, OD600 read-out, triplicate
Description: as §1

Bacillus cereus RFB125 = test: MIC, microdilution (CLSI); assay type: cell-based; details: clinical isolate; LB medium, 37 °C, 24-well plates, seeded at OD600 0.1, 24 h, amylolysin 0.1-2.8 µM, OD600 read-out, triplicate
Description: as §1

[14] = tested on: Micrococcus luteus ATCC 9341; test: MIC, microdilution (CLSI); assay type: cell-based; details: BH medium, 37 °C, 24-well plates, seeded at OD600 0.1, 24 h, amylolysin 0.1-2.8 µM, OD600 read-out, triplicate
Description: as §1

[15] = tested on: Enterococcus faecalis RFB129; test: MIC, microdilution (CLSI); assay type: cell-based; details: clinical isolate; BH medium, 37 °C, 24-well plates, seeded at OD600 0.1, 24 h, amylolysin 0.1-2.8 µM, OD600 read-out, triplicate
Description: as §1

Weissella sp RFB139 = test: MIC, microdilution (CLSI); assay type: cell-based; details: lab stock; MRS medium, 27 °C, 24-well plates, seeded at OD600 0.1, 24 h, amylolysin 0.1-2.8 µM, OD600 read-out, triplicate
Description: as §1

[16] = tested on: Lactobacillus plantarum RFB138; test: MIC, microdilution (CLSI); assay type: cell-based; details: lab stock; MRS medium, 27 °C, 24-well plates, seeded at OD600 0.1, 24 h, amylolysin 0.1-2.8 µM, OD600 read-out, triplicate
Description: as §1

[17] = tested on: Enterococcus faecalis ATCC 29212; test: MIC, microdilution (CLSI); assay type: cell-based; details: BH medium, 37 °C, 24-well plates, seeded at OD600 0.1, 24 h, amylolysin 0.1-2.8 µM, OD600 read-out, triplicate
Description: as §1

[18] = tested on: Enterococcus faecium RFB128; test: MIC, microdilution (CLSI); assay type: cell-based; details: lab stock; BH medium, 37 °C, 24-well plates, seeded at OD600 0.1, 24 h, amylolysin 0.1-2.8 µM, OD600 read-out, triplicate
Description: as §1

[19] = tested on: Bacillus subtilis ATCC 6633; test: MIC, microdilution (CLSI); assay type: cell-based; details: LB medium, 37 °C, 24-well plates, seeded at OD600 0.1, 24 h, amylolysin 0.1-2.8 µM, OD600 read-out, triplicate
Description: as §1

[20] = tested on: Staphylococcus aureus ATCC 25923; test: MIC, microdilution (CLSI); assay type: cell-based; details: BH medium, 37 °C, 24-well plates, seeded at OD600 0.1, 24 h, amylolysin 0.1-2.8 µM, OD600 read-out, triplicate
Description: as §1

[21] = above pH 6; cited from earlier work
Source text: as §3

amylolysin
MIC [1]: ~0.5 µM
reduction of biological activity ([2]; 100 °C for 1 hour): 7%
antimicrobial activity reduction ([2]; acidic condition, pH 2, 1 h): 11%
antimicrobial activity reduction ([2]; alkaline condition, pH 9, 1 h): 7%
direct amylolysin-lipid II interaction (delay of migration of the complex on TLC) [3]: direct interaction between the two partners
inhibition of the transglycosylation reaction (lipid II polymerisation) [4]: Inhibition of the transglycosylation reaction
sensitivity to meat proteases (meat proteases): less sensitive to meat proteases than nisin
MIC (Listeria ivanovii RFB160): 0.8 µM
MIC [5]: 1.4 µM
MIC (Listeria innocua RFB159): 0.7 µM
MIC [6]: 0.4 µM
MIC [7]: 0.5 µM
MIC [8]: 2.8 µM
MIC [9]: 0.7 µM
MIC [10]: 0.4 µM
MIC [11]: 0.4 µM
MIC [12]: 0.4 µM
MIC [13]: 2.8 µM
MIC (Bacillus cereus RFB125): 0.2 µM
MIC [14]: 0.7 µM
MIC [15]: 0.7 µM
MIC (Weissella sp RFB139): 2.8 µM
MIC [16]: >2.8 µM
MIC [17]: 1.4 µM
MIC [18]: 0.1 µM
MIC [19]: 1.4 µM
MIC [20]: 2.8 µM

nisin
solubility [21]: low solubility above pH 6
